Literature values as cited in patent US10273264B2, “Cortistatin analogues and syntheses and uses thereof” (President and Fellows of Harvard College, priority 2015, dated 2019).

What was measured:
[1] = target: CDK19 (Homo sapiens, UniProt Q9BWU1); settings: reported, Cee et al. and US 20120071477
[2] = system: cell lines derived from patients with MPNs; settings: as described in PCT/US2014/72365
[3] = system: Wnt/beta-catenin target genes in AML cells; settings: as described in PCT/US2014/72365
[4] = system: AML cell lines; settings: in vitro; as described in PCT/US2014/72365
[5] = system: STAT1 phosphorylation; settings: as described in PCT/US2014/72365
[6] = system: PMF; settings: as described in PCT/US2014/72365
[7] = system: AML; settings: in vivo; as described in PCT/US2014/72365
[8] = system: beta-catenin activated transcription; settings: reporter gene assay; as described in PCT/US2014/72365

CDK19, sequence (Q9BWU1 whole entry): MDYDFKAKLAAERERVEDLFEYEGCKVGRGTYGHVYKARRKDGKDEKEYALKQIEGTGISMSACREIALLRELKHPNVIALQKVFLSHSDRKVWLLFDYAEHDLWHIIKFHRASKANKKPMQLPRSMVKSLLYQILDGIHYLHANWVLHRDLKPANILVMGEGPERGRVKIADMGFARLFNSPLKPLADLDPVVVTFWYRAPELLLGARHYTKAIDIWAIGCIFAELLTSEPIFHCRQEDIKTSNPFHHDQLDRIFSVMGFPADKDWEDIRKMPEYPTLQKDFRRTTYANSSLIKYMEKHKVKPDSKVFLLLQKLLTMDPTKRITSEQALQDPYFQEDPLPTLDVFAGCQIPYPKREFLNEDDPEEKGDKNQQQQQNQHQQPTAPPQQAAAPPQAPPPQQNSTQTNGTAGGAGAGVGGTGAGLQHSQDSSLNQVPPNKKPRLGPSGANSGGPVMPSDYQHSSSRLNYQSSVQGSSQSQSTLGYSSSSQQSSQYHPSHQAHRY

Substance: cortistatin A
- binding to CDK19 [1]: bind
- inhibition of proliferation of MPN patient-derived cell lines [2]: inhibits
- inhibition of expression of putative Wnt/beta-catenin target genes [3]: inhibits
- inhibition of proliferation of AML cell lines [4]: inhibit
- inhibition of interferon-gamma-stimulated STAT1 phosphorylation [5]: inhibits
- efficacy in an in vivo model of PMF [6]: efficacious
- inhibition of AML progression [7]: inhibits
- inhibition of beta-catenin activated transcription [8]: inhibits
